“And” between values parts separate entries of the source, which are not always exact repeats. Equal entries are not always repeated.
Legend:
[1] = test system: 22Rv1-SamR cells; test: Growth assay (SRB), Samuraciclib-resistant 22Rv1; format: cell-based, human; conditions: for % Growth: 22Rv1 SamR, 4 days, biological reps
Protocol: (§1) To determine the IC50 of drug treatments on growth, cells were seeded in 96-well culture plates. Two days after seeding, the cells were treated with increasing concentrations of drugs and incubated for 4 days. Cell number was determined using the SRB assay (Skehan et al, [1990]), and IC50 values were calculated using non-linear regression curve fitting in GraphPad Prism v10. For all other growth experiments, cells were seeded into 96-well plates, and appropriate drugs were added 2 days after seeding. Cells were then incubated in an IncuCyte Zoom live-cell imager, with cell confluency measured every 6 h. Cell doubling times were determined by non-linear curve fitting (exponential growth equation) in GraphPad Prism v10.

[2] = test system: MCF7 cells; test: Growth assay (SRB), MCF7; format: cell-based, human; conditions: for IC50: 4 days, SRB; for % Growth: biological reps
Protocol: as §1

[3] = molecular target: T1, CDK7-WT (Homo sapiens, UniProt P50613); test: NanoBRET Target Engagement assay, K-10 tracer displacement in HEK293 cells; format: binding; conditions: CDK7 WT, replicates N1-N3
T1 construct: expressed in transfected cells; host or cells: HEK293
Protocol: (§2) Energy transfer between the NanoLuc fusion protein and a cell-permeable fluorescent energy transfer probe facilitates quantitative determination of target engagement in live cells (Wells et al, [2020]). Assays were conducted according to this previous report, using the optimal CDK7 probe, K-10, at a concentration of 0.5 µM.
(§3) CDK4, CDK6 and CDK7 and the respective mutant sequences, obtained as synthesised DNA fragments from IDT (Leuven), were cloned by HiFi DNA assembly (New England Biolabs) into the pNLF1-N NanoLuc protein fusion vector (Promega). HEK293 cells, transiently transfected with NanoLuc-CDK fusion constructs, were used for activity determination, utilising the NanoBRET Target Engagement Intracellular Kinase Assay. A CCND1 expression construct was co-transfected with the NanoLuc-CDK4 and NanoLuc-CDK6 fusion constructs. The recommended cell-permeable energy transfer probe, K-10, was used to assess target engagement, as detailed in the manufacturer’s methods (Promega). […] The BRET ratio (mBU) was calculated as acceptor emission (590–610 nm)/donor emission (410–490 nm) × 1000. The mBU values were plotted against the energy probe concentrations to determine maximal binding (Bmax) and Kd values. BRET signal competition by CDK inhibitors was used to determine compound binding to WT and mutant CDKs. […] Inhibitor binding was determined using a fourfold dilution series. mBU values were plotted against test compound concentrations in the presence of K10 tracer. EC50 values were determined using nonlinear regression curve-fitting. Test compound occupancy (%) was calculated using the equation [1 − (x − z)/(y − z)] × 100, where x = mBU in the presence of the test compound and K-10 tracer, y = mBU with K-10 tracer and vehicle control, and z = mBU in the absence of the K-10 tracer or test compound (Wells et al, [2020]).

[4] = molecular target: T2, CDK7-D97N (Homo sapiens, UniProt P50613, D97N); test: as above; format: binding; conditions: CDK7 D97N, replicates N1-N3
T2 construct: expressed in transfected cells; host or cells: HEK293
Protocol: as §2, §3

[5] = test system: LNCaP-CDK7-D97N cells; test: Growth assay (SRB), LNCaP CDK7-D97N knock-in; format: cell-based, human; conditions: LNCaP CDK7 D99N
Protocol: as §1
(§4) Alt-R^TM S.p. Cas9 nuclease V3, Alt-R CRISPR-Cas9 crRNA, TracrRNA and the donor templates were obtained from Integrated DNA Technologies. […] Cells were treated with 0.7 µM of Alt-R HDR Enhancer V2 to improve HRD efficiency. Sequences of the CRISPRs in the crRNA and the donor templates are shown in the Reagents and tools table. Donor templates were designed to include non-coding substitutions to aid genome DNA PCR for identifying knock-in events and to facilitate cloning; these substitutions are noted in the Reagents and tools table.

[6] = test system: 22Rv1-CDK7-D97N cells; test: Growth assay (SRB), 22Rv1 CDK7-D97N knock-in pool; format: cell-based, human; conditions: 22Rv1 CDK7 D99N
Protocol: as §1, §4

[7] = test system: LNCaP cells; test: Growth assay (SRB), LNCaP; format: cell-based, human
Protocol: as §1

T2 sequence (P50613 whole entry D97N): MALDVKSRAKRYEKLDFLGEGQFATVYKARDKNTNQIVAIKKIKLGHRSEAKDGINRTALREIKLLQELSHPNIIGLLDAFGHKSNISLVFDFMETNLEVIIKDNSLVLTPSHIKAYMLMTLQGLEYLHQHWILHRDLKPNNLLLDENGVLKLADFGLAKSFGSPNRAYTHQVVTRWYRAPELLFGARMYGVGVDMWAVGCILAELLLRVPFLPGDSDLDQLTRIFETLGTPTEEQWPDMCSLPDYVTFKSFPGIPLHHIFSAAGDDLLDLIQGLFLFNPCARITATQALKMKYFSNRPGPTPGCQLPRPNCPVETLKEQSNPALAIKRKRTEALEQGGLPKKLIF
T1 sequence (P50613 whole entry): as the sequence (P50613 whole entry D97N) above, with N97D counted along it

SMILES: CN(C)C/C=C/C(=O)Nc1ccc(C(=O)Nc2cccc(Nc3ncc(Cl)c(-c4c[nH]c5ccccc45)n3)c2)cc1 [THZ1]
- Sensitivity in growth assays ([1]; 22Rv1-SamR): remained sensitive
- % Growth ([1]; Log10 Conc. (nM) 0.09): 83.75% and 87.25%
- % Growth ([1]; Log10 Conc. (nM) 0.69): 68.41% and 67.61%
- % Growth ([1]; Log10 Conc. (nM) 1.29): 30.25% and 41.41%
- % Growth ([1]; Log10 Conc. (nM) 1.89): -7.69% and -2.73%
- % Growth ([1]; Log10 Conc. (nM) 2.49): -11.43% and -7.53%
- % Growth ([1]; Log10 Conc. (nM) 3.10): -11.82% and -8.43%
- % Growth ([1]; Log10 Conc. (nM) 3.70): -15.22% and -10.53%
- % Growth ([1]; Log10 Conc. (nM) -0.52): 93.15% and 99.90%
- % Growth ([1]; Log10 Conc. (nM) -1.12): 93.43% and 95.60%
- IC50 [2]: 153 nM
- % Growth ([2]; Log10 Conc. (nM) 0.09, 4 days): 91.30% and 94.59% and 94.55%
- % Growth ([2]; Log10 Conc. (nM) 0.69, 4 days): 87.28% and 92.52% and 92.40%
- % Growth ([2]; Log10 Conc. (nM) 1.29, 4 days): 80.95% and 90.37% and 89.19%
- % Growth ([2]; Log10 Conc. (nM) 1.89, 4 days): 64.20% and 77.72% and 79.90%
- % Growth ([2]; Log10 Conc. (nM) 3.10, 4 days): -9.63% and -1.23% and -2.34%
- % Growth ([2]; Log10 Conc. (nM) 3.70, 4 days): -9.74% and -3.96% and -4.65%
- % Growth ([2]; Log10 Conc. (nM) -0.52, 4 days): 92.77% and 97.61% and 102.10%
- % Growth ([2]; Log10 Conc. (nM) -1.12, 4 days): 92.06% and 94.91% and 96.97%
- % Occupacy ([3]; Log10 Conc. (nM) 0.09): 16.74% and 4.33% and 5.86%
- % Occupacy ([3]; Log10 Conc. (nM) 0.69): 17.70% and 6.32% and 7.28%
- % Occupacy ([3]; Log10 Conc. (nM) 1.29): 29.22% and 3.65% and 10.56%
- % Occupacy ([3]; Log10 Conc. (nM) 1.89): 53.51% and 14.09% and 19.55%
- % Occupacy ([3]; Log10 Conc. (nM) 2.49): 85.19% and 65.85% and 67.10%
- % Occupacy ([3]; Log10 Conc. (nM) 3.10): 97.70% and 100.48% and 92.33%
- % Occupacy ([3]; Log10 Conc. (nM) 3.70): 102.14% and 100.08% and 100.97%
- % Occupacy ([3]; Log10 Conc. (nM) 4.30): 101.17% and 106.00% and 102.12%
- % Occupacy ([3]; Log10 Conc. (nM) -0.52): 21.00% and 8.28% and 9.27%
- % Occupacy ([3]; Log10 Conc. (nM) -1.12): 15.97% and 8.08% and 8.28%
- % Occupacy ([3]; Log10 Conc. (nM) -1.72): 12.78% and 7.38% and 8.51%
- % Occupacy ([4]; Log10 Conc. (nM) 0.09): 9.16% and 2.67% and 0.07%
- % Occupacy ([4]; Log10 Conc. (nM) 0.69): 13.92% and 3.61% and 4.36%
- % Occupacy ([4]; Log10 Conc. (nM) 1.29): 29.03% and 9.81% and 4.02%
- % Occupacy ([4]; Log10 Conc. (nM) 1.89): 74.11% and 30.96% and 26.31%
- % Occupacy ([4]; Log10 Conc. (nM) 2.49): 95.10% and 79.08% and 80.38%
- % Occupacy ([4]; Log10 Conc. (nM) 3.10): 97.98% and 96.38% and 96.98%
- % Occupacy ([4]; Log10 Conc. (nM) 3.70): 98.68% and 99.58% and 99.12%
- % Occupacy ([4]; Log10 Conc. (nM) 4.30): 99.99% and 100.77% and 101.05%
- % Occupacy ([4]; Log10 Conc. (nM) -0.52): 6.83% and 2.53% and 1.19%
- % Occupacy ([4]; Log10 Conc. (nM) -1.12): 11.58% and 4.35% and 1.55%
- % Occupacy ([4]; Log10 Conc. (nM) -1.72): 7.10% and 3.74% and 2.78%

SMILES: CC(C)c1cnn2c(NCc3ccccc3-n3cccn3)nc(OC3CCCNC3)nc12 (stereo not shown) [LDC4297]
- % Growth ([5]; Log10 Conc. (nM) 0.09): 106.48% and 87.66%
- % Growth ([5]; Log10 Conc. (nM) 0.69): 87.77% and 86.95%
- % Growth ([5]; Log10 Conc. (nM) 1.29): 78.55% and 76.66%
- % Growth ([5]; Log10 Conc. (nM) 1.89): 68.25% and 64.95%
- % Growth ([5]; Log10 Conc. (nM) 2.49): 52.79% and 47.15%
- % Growth ([5]; Log10 Conc. (nM) 3.10): 25.80% and 16.35%
- % Growth ([5]; Log10 Conc. (nM) 3.70): 4.77% and -4.61%
- % Growth ([5]; Log10 Conc. (nM) 4.30): -8.16% and -14.41%
- % Growth ([5]; Log10 Conc. (nM) -0.52): 106.84% and 93.83%
- Resistance (Fold), fold increase in IC50 of 22Rv1-SamR relative to 22Rv1 ([1]; 22Rv1-SamR vs 22Rv1): 45 fold
- % Growth ([1]; Log10 Conc. (nM) 0.09): 97.61% and 104.31%
- % Growth ([1]; Log10 Conc. (nM) 0.69): 95.33% and 95.56%
- % Growth ([1]; Log10 Conc. (nM) 1.29): 91.02% and 93.49%
- % Growth ([1]; Log10 Conc. (nM) 1.89): 85.93% and 89.36%
- % Growth ([1]; Log10 Conc. (nM) 2.49): 74.46% and 80.17%
- % Growth ([1]; Log10 Conc. (nM) 3.10): 45.54% and 51.37%
- % Growth ([1]; Log10 Conc. (nM) 3.70): 16.52% and 21.74%
- % Growth ([1]; Log10 Conc. (nM) 4.30): -6.89% and -7.33%
- % Growth ([1]; Log10 Conc. (nM) -0.52): 95.69% and 97.10%
- % Growth ([6]; Log10 Conc. (nM) 0.09): 99.08% and 97.65%
- % Growth ([6]; Log10 Conc. (nM) 0.69): 98.24% and 92.35%
- % Growth ([6]; Log10 Conc. (nM) 1.29): 97.25% and 79.61%
- % Growth ([6]; Log10 Conc. (nM) 2.49): 79.12% and 58.88%
- % Growth ([6]; Log10 Conc. (nM) 3.10): 40.19% and 24.40%
- % Growth ([6]; Log10 Conc. (nM) 4.30): -8.93% and -12.96%
- % Growth ([6]; Log10 Conc. (nM) -0.52): 101.69% and 97.12%
- % Growth ([7]; Log10 Conc. (nM) 0.09): 103.68% and 97.62%
- % Growth ([7]; Log10 Conc. (nM) 0.69): 77.76% and 65.52%
- % Growth ([7]; Log10 Conc. (nM) 1.29): 48.12% and 34.31%
- % Growth ([7]; Log10 Conc. (nM) 3.10): 4.14% and -5.07%
- % Growth ([7]; Log10 Conc. (nM) 3.70): -12.69% and -19.92%
- % Growth ([7]; Log10 Conc. (nM) 4.30): -12.08% and -21.22%
- % Growth ([7]; Log10 Conc. (nM) -0.52): 92.16% and 87.19%
- IC50 [2]: 7.3 nM
- % Growth ([2]; Log10 Conc. (nM) 0.09, 4 days): 91.12% and 94.99% and 92.39%
- % Growth ([2]; Log10 Conc. (nM) 0.69, 4 days): 52.29% and 66.02% and 70.05%
- % Growth ([2]; Log10 Conc. (nM) 1.29, 4 days): 18.87% and 28.85% and 28.07%
- % Growth ([2]; Log10 Conc. (nM) 2.49, 4 days): 9.82% and 18.59% and 16.86%
- % Growth ([2]; Log10 Conc. (nM) 3.70, 4 days): -7.82% and -0.67% and -1.06%
- % Growth ([2]; Log10 Conc. (nM) 4.30, 4 days): -10.31% and -1.91% and -1.69%
- % Growth ([2]; Log10 Conc. (nM) -0.52, 4 days): 95.85% and 97.88% and 93.10%

— paper PMC12528448, “Resistance to CDK7 inhibitors directed by acquired mutation of a conserved residue in cancer cells” (The EMBO Journal, 2025)
